Laboratory results taken from patent publication US20100160356A1, “NOVEL CYCLOBUTYL COMPOUNDS AS KINASE INHIBITORS” (priority 2006, published 2010).

Key:
Met = Met (Homo sapiens, UniProt P08581); test: Inhibition of Met (flashplate method); type: biochemical
IGF1R = IGF1R (Homo sapiens, UniProt P08069); test: Inhibition of IGF1R (flashplate assay); type: biochemical; conditions: flashplate method
Protocol: (§1) The test plates used are 96-well flashplate microtitre plates from Perkin Elmer (USA). The components of the kinase reaction are pipetted into the assay plate. The IGF1R kinase is incubated for 1 hr. with radioactively labelled ^33P-ATP in the presence and absence of test substances in a total volume of 100 μl at room temperature together with biotinylated poly(Glu, Tyr)4:1. The reaction is terminated using 25 μl of a 200 mM EDTA solution. After incubation for a further 30 min at room temperature, the supernatants are removed by suction, and the wells are washed three times with 100 μl of 0.9% NaCl solution each time. The radioactivity is measured using a Topcount scintillation counter (PerkinElmer, USA). IC50 values are calculated using the RS1 computer program.

IGF1 receptor (IGF1R) = target: T1, IGF1 receptor (IGF1R) (Homo sapiens, UniProt P08069); test: Inhibition of IGF1R (ELISA assay), IGF1-stimulated autophosphorylation in cells; type: cell-based; conditions: human tumour cells stimulated with IGF1, read-out: IC50 IGF (ELISA)
T1 construct: endogenous in cells; host or cells: MCF-7 or Calu-6
Protocol: The stimulation induces an autophosphorylation of tyrosine residues in the cytoplasmatic IGF1R domain, which triggers signal transduction cascades, which result in inhibition of apoptosis and proliferation of the cells.
The amount of phosphorylated IGF1R is determined by a receptor-specific capture ELISA or an analogous LUMINEX assay. The IGF1R from cell lysates is bound to a 96-well ELISA plate or LUMINEX beads by means of a specific antibody (“capturing”), and the tyrosine phosphorylation is detected using a biotin-labelled anti-phosphotyrosine antibody and a streptavidin-peroxidase conjugate by a chemiluminescence method or by means of a fluorescence-labelled anti-phosphotyrosine antibody.
For determination of the activity of kinase inhibitors, cells are pretreated with increasing concentrations of these compounds for 45 min and subsequently stimulated using IGF1 for 5 min. As internal control, the biological activity of the ligand IGF1 is checked, and a concentration series of an IGF1R reference inhibitor is measured.

[1] = target: T2, FAK (focal adhesion kinase) (Homo sapiens, UniProt Q05397); test: Inhibition of FAK (ELISA assay), FAK phosphorylation in cells; type: cell-based; conditions: human cells with FAK amplification
T2 construct: endogenous in cells; host or cells: Calu-6 or HT-29
T2 sequence (Q05397 whole entry): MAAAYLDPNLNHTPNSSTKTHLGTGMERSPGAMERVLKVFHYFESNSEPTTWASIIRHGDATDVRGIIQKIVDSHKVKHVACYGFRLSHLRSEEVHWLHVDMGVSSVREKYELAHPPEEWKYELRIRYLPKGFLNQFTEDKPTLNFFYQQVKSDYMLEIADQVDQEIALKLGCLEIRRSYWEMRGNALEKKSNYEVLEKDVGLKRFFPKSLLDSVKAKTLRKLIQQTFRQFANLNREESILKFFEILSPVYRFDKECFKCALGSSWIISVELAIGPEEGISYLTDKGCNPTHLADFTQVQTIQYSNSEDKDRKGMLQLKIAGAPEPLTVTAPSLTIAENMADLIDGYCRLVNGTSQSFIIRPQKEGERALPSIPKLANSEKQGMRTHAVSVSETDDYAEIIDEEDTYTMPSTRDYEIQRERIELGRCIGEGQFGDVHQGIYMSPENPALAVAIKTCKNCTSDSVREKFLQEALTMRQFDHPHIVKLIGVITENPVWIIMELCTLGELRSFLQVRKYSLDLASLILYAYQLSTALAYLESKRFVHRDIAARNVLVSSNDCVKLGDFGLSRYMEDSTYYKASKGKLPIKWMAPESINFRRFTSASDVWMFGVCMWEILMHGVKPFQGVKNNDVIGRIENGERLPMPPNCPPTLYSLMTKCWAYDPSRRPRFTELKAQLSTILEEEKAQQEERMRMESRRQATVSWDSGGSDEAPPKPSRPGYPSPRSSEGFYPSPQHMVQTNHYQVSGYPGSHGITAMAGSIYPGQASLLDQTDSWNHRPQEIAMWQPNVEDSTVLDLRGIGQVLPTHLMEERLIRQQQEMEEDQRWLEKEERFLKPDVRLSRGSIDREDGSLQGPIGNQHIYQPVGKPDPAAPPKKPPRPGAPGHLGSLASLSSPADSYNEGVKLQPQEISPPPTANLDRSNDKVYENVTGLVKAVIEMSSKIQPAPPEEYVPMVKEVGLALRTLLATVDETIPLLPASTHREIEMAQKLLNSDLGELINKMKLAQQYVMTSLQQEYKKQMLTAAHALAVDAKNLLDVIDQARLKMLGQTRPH
Protocol: Activated FAK promotes the invasive growth of tumour cells and inhibits anoikis.
The amount of phosphorylated FAK is determined by a specific capture ELISA or an analogous LUMINEX assay. FAK from cell lysates is bound to a 96-well ELISA plate or LUMINEX beads by means of a specific antibody (“capturing”), and the tyrosine phosphorylation is detected using a biotin-labelled anti-phosphotyrosine antibody and a streptavidin-peroxidase conjugate by a chemiluminescence method or by means of a fluorescence-labelled anti-phosphotyrosine antibody.
For determination of the activity of kinase inhibitors, cells are pretreated with increasing concentrations of these compounds for 45 min, and the FAK phosphorylation is then determined. As internal control, a concentration series of a reference inhibitor is measured.

insulin receptor (InsR) = target: T3, insulin receptor (InsR) (Homo sapiens, UniProt P06213); test: Inhibition of InsR (ELISA assay), insulin-stimulated autophosphorylation in cells; type: cell-based; conditions: human cells stimulated with insulin
T3 construct: endogenous in cells; host or cells: HepG2
Protocol: Cultivated human cells which express the insulin receptor (InsR) (for example HepG2) are stimulated using human insulin, the natural ligand of InsR. The stimulation induces autophosphorylation of tyrosine residues in the cytoplasmatic InsR domain, which triggers signal transduction cascades, which initiate various biological reactions of the cells. The amount of phosphorylated InsR is determined by a receptor-specific capture ELISA or an analogous LUMINEX assay. The InsR from cell lysates is bound to a 96-well ELISA plate or LUMINEX beads by means of a specific antibody (“capturing”), and the tyrosine phosphorylation is detected using a biotin-labelled anti-phosphotyrosine antibody and a streptavidin-peroxidase conjugate by a chemiluminescence method or by means of a fluorescence-labelled anti-phosphotyrosine antibody. For determination of the activity of kinase inhibitors, cells are pretreated with increasing concentrations of these compounds for 45 min and subsequently stimulated using insulin for 5 min. As internal control, the biological activity of the ligand insulin is checked, and a concentration series of a reference inhibitor is measured.

SGK1 = target: T4, SGK1 (Homo sapiens, UniProt O00141); test: Inhibition of SGK1 (flashplate assay); type: biochemical; conditions: flashplate method
T4 sequence (O00141 1-431): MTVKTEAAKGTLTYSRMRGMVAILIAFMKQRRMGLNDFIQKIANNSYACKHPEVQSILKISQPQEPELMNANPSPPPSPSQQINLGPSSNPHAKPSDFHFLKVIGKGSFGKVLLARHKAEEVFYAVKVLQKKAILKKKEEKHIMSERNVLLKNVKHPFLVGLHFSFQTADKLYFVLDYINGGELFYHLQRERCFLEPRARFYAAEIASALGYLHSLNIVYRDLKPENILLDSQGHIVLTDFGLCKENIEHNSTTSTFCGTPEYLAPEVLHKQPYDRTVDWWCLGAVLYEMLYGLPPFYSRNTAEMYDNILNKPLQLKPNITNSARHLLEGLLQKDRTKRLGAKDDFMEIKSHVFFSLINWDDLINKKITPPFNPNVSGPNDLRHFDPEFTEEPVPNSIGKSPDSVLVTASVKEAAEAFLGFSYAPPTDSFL
Protocol: as §1, with “are 384-well” for “are 96-well”, “The SGK1” for “The IGF1R”, “for 3” for “for 1”

TGFβR1 = target: T5, TGFβR1 (Homo sapiens, UniProt P36897); test: Inhibition of TGFβR1 (flashplate assay); type: biochemical; conditions: flashplate method
T5 sequence (P36897 34-503): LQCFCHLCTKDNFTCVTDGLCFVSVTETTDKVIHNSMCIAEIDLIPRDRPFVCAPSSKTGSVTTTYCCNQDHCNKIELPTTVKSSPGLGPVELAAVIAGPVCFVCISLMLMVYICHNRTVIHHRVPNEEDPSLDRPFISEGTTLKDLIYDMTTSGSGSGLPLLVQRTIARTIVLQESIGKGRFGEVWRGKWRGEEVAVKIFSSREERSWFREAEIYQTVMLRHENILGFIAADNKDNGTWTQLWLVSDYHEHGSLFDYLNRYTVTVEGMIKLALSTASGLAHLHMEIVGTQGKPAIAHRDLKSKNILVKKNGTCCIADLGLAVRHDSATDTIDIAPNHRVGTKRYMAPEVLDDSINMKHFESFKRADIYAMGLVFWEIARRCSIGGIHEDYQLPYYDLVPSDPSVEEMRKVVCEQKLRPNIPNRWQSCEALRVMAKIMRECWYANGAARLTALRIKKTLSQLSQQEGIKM
Protocol: The test is carried out as described in Example B1b for IGF1R. A biotinylated is added to the TGFβR1 kinase.
The kinase assay is carried out as a 384-well flashplate assay.
The components of the kinase reaction are pipetted into the assay plate. The TGFβR1 kinase is incubated for 45 min with radioactively labelled ^33P-ATP in the presence and absence of test substances together with biotinylated substrate in a total volume of 35 μl. The reaction is terminated using 25 μl of 200 mM EDTA solution, removed by suction after 30 min at room temperature, and the wells are washed with three times with 100 μl of 0.9% NaCl solution each time. The radioactivity is measured using a Topcount scintillation counter (PerkinElmer, USA). IC50 values are calculated using the RS1 computer program.

VEGF-2 = VEGF-2 (Homo sapiens, UniProt P35968); test: Inhibition of VEGF-2 (flashplate assay); type: biochemical; conditions: flashplate method
Chain of VEGF-2 (P35968 20-1356): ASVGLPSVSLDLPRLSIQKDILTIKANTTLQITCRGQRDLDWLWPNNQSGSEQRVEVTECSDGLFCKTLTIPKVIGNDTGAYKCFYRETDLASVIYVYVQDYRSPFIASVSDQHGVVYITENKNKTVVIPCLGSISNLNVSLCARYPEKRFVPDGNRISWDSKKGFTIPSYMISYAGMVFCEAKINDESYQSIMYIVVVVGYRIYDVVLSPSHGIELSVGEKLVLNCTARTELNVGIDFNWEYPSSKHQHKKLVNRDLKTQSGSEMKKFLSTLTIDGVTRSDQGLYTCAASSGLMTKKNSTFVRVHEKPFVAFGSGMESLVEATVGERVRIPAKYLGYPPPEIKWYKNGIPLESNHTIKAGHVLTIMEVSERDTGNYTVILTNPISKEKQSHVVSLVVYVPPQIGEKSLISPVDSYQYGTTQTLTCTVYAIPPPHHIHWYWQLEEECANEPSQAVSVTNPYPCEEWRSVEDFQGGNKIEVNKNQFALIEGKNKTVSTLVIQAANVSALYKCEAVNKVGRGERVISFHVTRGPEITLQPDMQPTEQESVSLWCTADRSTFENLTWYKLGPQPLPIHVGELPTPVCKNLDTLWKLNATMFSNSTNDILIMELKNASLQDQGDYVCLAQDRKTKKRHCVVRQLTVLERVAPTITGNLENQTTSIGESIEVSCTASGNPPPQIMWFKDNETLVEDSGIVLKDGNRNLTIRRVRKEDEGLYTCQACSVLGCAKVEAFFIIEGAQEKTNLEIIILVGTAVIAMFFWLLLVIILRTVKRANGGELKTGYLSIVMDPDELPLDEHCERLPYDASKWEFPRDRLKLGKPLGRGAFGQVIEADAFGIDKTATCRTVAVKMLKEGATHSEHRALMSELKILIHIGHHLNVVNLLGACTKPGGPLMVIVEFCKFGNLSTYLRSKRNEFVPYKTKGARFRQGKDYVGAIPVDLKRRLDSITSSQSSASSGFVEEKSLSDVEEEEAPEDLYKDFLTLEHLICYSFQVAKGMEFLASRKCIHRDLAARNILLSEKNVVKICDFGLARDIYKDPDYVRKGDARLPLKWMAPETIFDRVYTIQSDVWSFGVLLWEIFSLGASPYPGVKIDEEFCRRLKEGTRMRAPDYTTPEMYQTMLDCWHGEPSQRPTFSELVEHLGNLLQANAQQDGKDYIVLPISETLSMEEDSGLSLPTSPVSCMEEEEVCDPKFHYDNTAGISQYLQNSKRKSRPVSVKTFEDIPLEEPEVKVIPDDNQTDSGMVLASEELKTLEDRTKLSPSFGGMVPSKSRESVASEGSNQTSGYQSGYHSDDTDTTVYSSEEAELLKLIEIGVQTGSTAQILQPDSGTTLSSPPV
Protocol: as §1, with “are 384-well” for “are 96-well”, “The VEGF-2” for “The IGF1R”, “for 3” for “for 1”

TIE2 = TIE2 (Homo sapiens, UniProt Q02763); test: Inhibition of TIE2 (flashplate assay); type: biochemical; conditions: flashplate method
Chain of TIE2 (Q02763 23-1124, species assumed): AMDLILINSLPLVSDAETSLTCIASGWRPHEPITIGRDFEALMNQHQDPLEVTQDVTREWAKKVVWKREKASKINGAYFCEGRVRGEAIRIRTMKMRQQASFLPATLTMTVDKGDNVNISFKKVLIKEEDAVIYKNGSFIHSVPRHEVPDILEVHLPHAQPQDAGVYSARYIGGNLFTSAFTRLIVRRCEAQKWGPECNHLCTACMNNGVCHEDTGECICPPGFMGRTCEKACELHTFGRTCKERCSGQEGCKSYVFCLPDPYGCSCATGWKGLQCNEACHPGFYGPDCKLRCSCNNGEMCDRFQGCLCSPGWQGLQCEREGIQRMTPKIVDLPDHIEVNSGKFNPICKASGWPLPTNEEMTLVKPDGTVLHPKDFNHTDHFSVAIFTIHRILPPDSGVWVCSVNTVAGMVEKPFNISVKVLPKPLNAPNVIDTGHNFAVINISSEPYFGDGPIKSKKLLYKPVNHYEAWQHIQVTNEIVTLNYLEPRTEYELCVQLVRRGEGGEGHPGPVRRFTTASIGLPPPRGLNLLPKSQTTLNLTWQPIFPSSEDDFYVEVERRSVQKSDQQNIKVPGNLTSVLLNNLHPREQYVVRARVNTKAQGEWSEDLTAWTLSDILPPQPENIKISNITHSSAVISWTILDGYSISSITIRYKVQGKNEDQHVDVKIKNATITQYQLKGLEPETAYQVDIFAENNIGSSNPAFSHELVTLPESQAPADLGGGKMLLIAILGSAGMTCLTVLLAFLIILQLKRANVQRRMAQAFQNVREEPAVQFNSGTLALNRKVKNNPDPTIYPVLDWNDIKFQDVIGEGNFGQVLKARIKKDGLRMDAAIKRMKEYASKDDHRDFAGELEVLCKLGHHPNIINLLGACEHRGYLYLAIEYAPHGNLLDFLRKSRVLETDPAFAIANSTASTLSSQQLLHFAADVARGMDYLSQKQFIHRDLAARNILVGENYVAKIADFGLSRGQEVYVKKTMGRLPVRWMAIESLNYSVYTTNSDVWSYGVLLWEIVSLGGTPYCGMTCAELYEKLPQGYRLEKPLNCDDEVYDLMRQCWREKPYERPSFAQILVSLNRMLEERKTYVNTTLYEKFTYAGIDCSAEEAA
Protocol: B4: inhibition of T1E2 (Flashplate Assay)
as §1, with “are 384-well” for “are 96-well”, “The TIE2” for “The IGF1R”, “for 3” for “for 1”

PDGFRβ = PDGFRβ (Homo sapiens, UniProt P09619); test: Inhibition of PDGFRβ (flashplate assay); type: biochemical; conditions: flashplate method
Chain of PDGFRβ (P09619 33-1106, species assumed): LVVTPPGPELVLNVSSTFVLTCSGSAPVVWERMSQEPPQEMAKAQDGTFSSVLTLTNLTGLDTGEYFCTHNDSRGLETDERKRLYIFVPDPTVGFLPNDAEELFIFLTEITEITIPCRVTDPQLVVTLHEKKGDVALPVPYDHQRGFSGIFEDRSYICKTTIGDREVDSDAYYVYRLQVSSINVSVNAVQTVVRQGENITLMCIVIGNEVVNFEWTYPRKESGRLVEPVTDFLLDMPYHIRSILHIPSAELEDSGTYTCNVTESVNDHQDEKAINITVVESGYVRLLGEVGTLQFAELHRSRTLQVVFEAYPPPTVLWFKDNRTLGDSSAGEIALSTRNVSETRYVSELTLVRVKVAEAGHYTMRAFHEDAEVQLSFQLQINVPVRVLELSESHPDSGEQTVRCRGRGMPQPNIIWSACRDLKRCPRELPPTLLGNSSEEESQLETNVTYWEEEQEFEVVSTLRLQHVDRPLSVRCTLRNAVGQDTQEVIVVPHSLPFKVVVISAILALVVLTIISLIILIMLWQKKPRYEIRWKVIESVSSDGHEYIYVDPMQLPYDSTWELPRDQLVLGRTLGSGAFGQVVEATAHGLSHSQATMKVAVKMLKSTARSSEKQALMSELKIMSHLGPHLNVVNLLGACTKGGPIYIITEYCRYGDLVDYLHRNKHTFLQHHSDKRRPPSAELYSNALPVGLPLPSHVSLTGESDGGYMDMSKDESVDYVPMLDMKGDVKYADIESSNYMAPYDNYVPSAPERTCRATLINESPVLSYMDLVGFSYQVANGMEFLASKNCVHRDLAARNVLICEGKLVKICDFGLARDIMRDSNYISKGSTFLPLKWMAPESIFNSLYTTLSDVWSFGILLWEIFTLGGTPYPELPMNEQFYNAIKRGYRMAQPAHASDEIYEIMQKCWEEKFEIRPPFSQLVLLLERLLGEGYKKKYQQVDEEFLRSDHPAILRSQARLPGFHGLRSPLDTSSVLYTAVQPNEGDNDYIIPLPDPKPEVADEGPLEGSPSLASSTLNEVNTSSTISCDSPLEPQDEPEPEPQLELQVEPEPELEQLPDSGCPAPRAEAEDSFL
Protocol: as §1, with “The PDGFRβ” for “The IGF1R”, “for 3” for “for 1”, “temperature (here autophosphorylation of the kinase).” for “temperature together with biotinylated poly(Glu, Tyr)4:1.”, “using 150” for “using 25”, “a 60” for “a 200”, “with 200” for “with 100”

CHK = test: Inhibition of CHK (flashplate method); type: biochemical

| IC50 (Met) [nM] | IC50 (IGF1R) [nM] | IC50 (IGF1 receptor (IGF1R)) [nM] | IC50 [1] [nM] | IC50 (insulin receptor (InsR)) [nM] | IC50 (SGK1) [nM] | IC50 (TGFβR1) [nM] | IC50 (VEGF-2) [nM] | melting point [°C] | IC50 (TIE2) [nM] | IC50 (PDGFRβ) [nM] | IC50 (CHK) [nM] | SMILES |
| --- | --- | --- | --- | --- | --- | --- | --- | --- | --- | --- | --- | --- |
| 1100 | 320 | 810 | 16000 | 9500 | – | – | – | – | – | – | – | C[Si](C)(COc1cccc(-c2cn(C3CC(CN)C3)c3ncnc(N)c23)c1)c1ccccc1 (stereo not shown) [Compound 8] |
| – | 130 | 570 | 14000 | 5500 | – | – | – | – | – | – | – | C[Si](C)(C)COc1cccc(-c2cn(C3CC(CN)C3)c3ncnc(N)c23)c1 (stereo not shown) [Compound 9] |
| – | 7600 | 14000 | 1210 | – | 1950 | 810 | – | – | – | – | – | NCC1CC(n2cc(-c3cccc(N)c3)c3c(N)ncnc32)C1 (stereo not shown) [Compound 23] |
| – | 820 | 3000 | – | – | 3600 | 3700 | 390 | 204 to 206 | 1500 | 1200 | – | NCC1CC(n2cc(-c3cccc(NCc4ccccc4)c3)c3c(N)ncnc32)C1 (stereo not shown) [Compound 25] |
| – | – | 17000 | 18000 | – | 2600 | – | 2300 | – | – | – | 8800 | NCC1CC(n2cc(-c3ccco3)c3c(N)ncnc32)C1 (stereo not shown) [Compound 38] |
| – | – | – | 15000 | – | 2500 | 8500 | – | – | – | – | – | NCC1CC(n2cc(-c3ccoc3)c3c(N)ncnc32)C1 (stereo not shown) [Compound 39] |
| – | – | 18000 | 2600 | – | 8400 | 2200 | 1800 | 109 to 111 | 9300 | 750 | – | NCC1CC(n2cc(-c3ccsc3)c3c(N)ncnc32)C1 (stereo not shown) [Compound 40] |
| – | 5600 | 6200 | 3800 | – | 1600 | 2700 | 1200 | – | 4800 | – | – | NCC1CC(n2cc(-c3cccs3)c3c(N)ncnc32)C1 (stereo not shown) [Compound 41] |
| – | – | – | – | – | 2550 | – | – | – | – | – | – | NCC1CC(n2cc(C#CCO)c3c(N)ncnc32)C1 (stereo not shown) [Compound 47] |
| – | – | 7500 | – | – | 250 | – | 715 | – | 2600 | 1100 | – | NCC1CC(n2cc(I)c3c(N)ncnc32)C1 (stereo not shown) [Compound 52] |
| – | – | – | 3600 | – | 4400 | 330 | 1060 | 92 to 93.5 | 2400 | 2450 | – | Nc1ncnc2c1c(-c1ccc3occc3c1)cn2C1CC(CNC(=O)C(F)(F)F)C1 (stereo not shown) [Compound 64] |
| – | – | 8500 | 7100 | – | 4450 | 1400 | – | – | 2600 | 2500 | – | Cc1csc(-c2cn(C3CC(CN)C3)c3ncnc(N)c23)c1 (stereo not shown) [Compound 70] |
